Literature values as cited in patent US20090030403A1, “Methods and Systems for Attenuating the Tolerance Response to a Drug” (priority 2007, published 2009).
Read-outs that look alike come from different tables or passages of the source.

What was measured:
[1] = not given; remark: listed apart in the source
[2] = not given; remark: listed apart in the source
[3] = system: dopaminergic and serotonergic neurotransmission; conditions: in vivo microdialysis
rat hippocampal slices = conditions: 10-30 μg/mL
sodium channels = conditions: in vitro
partial seizures = conditions: adjunctive therapy, partial seizures in adults
[4] = system: cultured mouse spinal cord neurons; conditions: 10-30 μg/mL
[5] = system: GABA/benzodiazepine receptor ionophore complex; conditions: in vitro
T-type Ca^2+ currents = conditions: in vitro
[6] = not given; remark: listed apart in the source
[7] = system: maximal electroshock seizures; conditions: compared with ethosuximide
[8] = system responsible for the drug's metabolism
[9] = system removing the drug or its metabolites

Row | SMILES | Half life (in vivo) | Bioavailability (in vivo) | Metabolism [8] | Excretion [9] | other results
1 | CCN1C(=O)NC(c2ccccc2)C1=O (centres unmarked) [Ethotoin] | 3 to 9 h | – | – | – | –
2 | CCC(C)C(CC)C(N)=O (centres unmarked) [Valnoctamide] | 10 h | 94%[1] | Hepatic | – | –
3 | CCOc1ccc2nc(S(N)(=O)=O)sc2c1 [Ethoxzolamide] | 2.5 to 5.5 h | – | – | – | Protein binding [1]: ~89%
4 | NC(=O)OCC(COC(N)=O)c1ccccc1 [Felbamate] | 20 to 23 h | >90% | Hepatic | – | –
5 | CC(C)C[C@H](CN)CC(=O)O [Pregabalin] | 5 to 6.5 h | ≧90% | Negligible | Renal | –
6 | O=C1NC(=O)C(c2ccccc2)(c2ccccc2)N1 [Phenytoin, Diphenylhydantoin] | 22 h | – | hepatic | Primarily through the bile | Concentration at which toxic effects such as nystagmus develop ([2]; in vivo): around 20 μg/ml; Therapeutic (plasma) concentration for control of seizures ([2]; in vivo): above 10 μg/ml; Bioavailability (oral): 70-100%; Bioavailability (rectal and intravenous administration): 24.4%
7 | NC(=O)CCC/N=C(\c1ccc(Cl)cc1)c1cc(F)ccc1O [Progabide] | 4 h | 0.6 | Hepatic | Renal | –
8 | CC(=O)Nc1nnc(S(N)(=O)=O)s1 [Acetazolamide] | 3 to 9 h | – | – | – | –
9 | NC(=O)NC(=O)Cc1ccccc1 [Phenacemide] | 22 to 25 h | – | – | – | –
10 | CCC1(c2ccccc2)C(=O)NCNC1=O [Primidone] | Primidone: 5-15 hours, | >90% | Hepatic | Renal | Plasma concentration of the drug during long term therapy ([2]; per daily dose of 1 mg/kg): about 1 μg/ml
11 | CC1(C)O[C@@H]2[C@@H](CO[C@@]3(COS(N)(=O)=O)OC(C)(C)O[C@@H]23)O1 [Topiramate, 2,3:4,5-bis-O-(1-methylethylidene)-beta-D-fructopyranose sulfamate] | 19 to 23 h | – | – | – | Metabolism, hepatic share (in vivo): 30%
12 | CCC1(c2ccccc2)NC(=O)N(C)C1=O (centres unmarked) [Mephenytoin] | 7 h | – | – | – | –
13 | CCC1(C)CC(=O)NC1=O (centres unmarked) [Ethosuximide] | 53 h | 93%[1] | Hepatic (CYP3A4, CYP2E1) | Renal (20%) | Plasma concentration of the drug during long term therapy ([2]; per daily dose of 1 mg/kg): about 2 μg/ml
14 | CCCC(C)(COC(N)=O)COC(N)=O [Meprobamate] | 10 h | – | Hepatic | Renal | –
15 | NS(=O)(=O)Cc1noc2ccccc12 [Zonisamide, 1,2-benzisoxazole-3-methanesulfonamide] | – | – | Hepatic | Renal | Dopaminergic and serotonergic neurotransmission [3]: facilitates both dopaminergic and serotonergic neurotransmission; Neuronal or glial uptake of [3H]-GABA (rat hippocampal slices): without affecting; Effect on sodium channels (sodium channels): blocks sodium channels; Carbonic anhydrase inhibiting activity (carbonic anhydrase): weak; Effective doses in controlled trials (partial seizures): 100 to 600 mg/day; Synaptically-driven electrical activity [4]: suppresses synaptically-driven electrical activity; Postsynaptic GABA or glutamate responses ([4]; cultured mouse spinal cord neurons): without affecting; Half life (in red blood cells): 105 h; Binding to GABA/benzodiazepine receptor ionophore complex [5]: binds to the GABA/benzodiazepine receptor ionophore complex in an allosteric fashion; Chloride flux [5]: does not produce changes in chloride flux; Effect on T-type Ca2+ currents (T-type Ca^2+ currents): reduces voltage-dependent, transient inward currents
16 | CN1C(=O)CN=C(c2ccccc2)c2cc(Cl)ccc21 [Diazepam] | – | – | – | – | Time to Clinical Onset ([6]; Rectal): 5 to 15 min
17 | Cc1ncc2n1-c1ccc(Cl)cc1C(c1ccccc1F)=NC2 [Midazolam] | 1.8 to 6.4 h | – | – | – | Time to Clinical Onset ([6]; Buccal): 5 to 8 min; Time to Clinical Onset ([6]; Intramuscular): 1 to 5 min; Time to Clinical Onset ([6]; Intravenous): 1 to 5 min; Excretion (in vivo): Renal; Metabolism (in vivo): Hepatic; Bioavailability (in vivo, im): I.M. 90%+; Bioavailability (in vivo, po): Oral ~36%
18 | NC(=O)N1c2ccccc2CC(=O)c2ccccc21 [Oxcarbazepine] | – | >95% | – | – | Half life (healthy adults): 1 to 5 h (healthy adults)

Row | SMILES | Half life (in vivo) | Bioavailability (in vivo) | Metabolism [8] | Excretion [9] | other results
19 | CC[C@@H](C(N)=O)N1CCCC1=O [Levetiracetam, α-ethyl-2-oxo-1-pyrrolidineacetamide] | 6 to 8 h | – | Renal | Renal | –
20 | CCC1(C)OC(=O)N(C)C1=O (centres unmarked) [Paramethadione] | – | – | – | – | Protein binding (in words) [1]: Not significant
21 | NS(=O)(=O)c1ccc(N2CCCCS2(=O)=O)cc1 [Sultiame] | 24 hour hours | – | Hepatic secretion | Fecal (10%) and renal (90%) | Bioavailability (oral): 100% (oral)
22 | O=C(O)C1N=C(c2ccccc2)c2cc(Cl)ccc2NC1=O (centres unmarked) [Clorazepate] | 36 to 100 h | 0.91 | Hepatic | Renal | –
23 | CN1C(=O)CC(c2ccccc2)C1=O (centres unmarked) [Phensuximide] | – | – | – | – | Activity against maximal electroshock seizures [7]: more active against maximal electroshock seizures
24 | O=C1Nc2ccc(Cl)cc2C(c2ccccc2Cl)=NC1O (centres unmarked) [Lorazepam] | 10 to 20 h | – | Hepatic | Renal | –
25 | O=C1CN=C(c2ccccc2Cl)c2cc([N+](=O)[O-])ccc2N1 [Clonazepam] | 30 to 40 h | 0.9 | – | – | Excretion (in vivo): Renal; Metabolism (in vivo): Hepatic CYP3A4
26 | O=C1CN=C(c2ccccc2)c2cc([N+](=O)[O-])ccc2N1 [Nitrazepam] | 20 to 40 h | – | Hepatic | – | Excretion (in vivo): Renal
27 | CCC1(c2ccccc2)C(=O)NC(=O)NC1=O [Phenobarbital] | 53 to 118 h | >95% | – | – | Plasma concentration during long term therapy ([2]; adults, per daily dose of 1 mg/kg): about 10 μg/ml; Excretion (in vivo): Renal and fecal
28 | NCC1(CC(=O)O)CCCCC1 [Gabapentin] | 5 to 7 h | 60% for 0.9 g daily to 27% for 4.8 g daily dose | not appreciably metabolized | – | Bioavailability (absorption in words) (in vivo): Rapid, in part by saturable carrier-mediated L-; Excretion (in vivo): Renal; Food increases absorption by (in vivo): Food increases absorption by 14%
29 | CN1C(=O)CC(=O)N(c2ccccc2)c2cc(Cl)ccc21 [Clobazam] | 18 h | – | Hepatic | Renal | –
30 | NC(=O)N1c2ccccc2C=Cc2ccccc21 [Carbamazepine] | 25 to 65 h | – | hepatic CYP3A4 to active epoxide form | – | Excreted unchanged (in urine where stated): 2-3% excreted unchanged in urine
31 | O=C1NC(c2ccccc2)(c2ccccc2)C(=O)N1COP(=O)(O)O [Fosphenytoin] | – | – | – | – | Half life (to convert to phenytoin): 15 minutes to convert to phenytoin
32 | C=CC(N)CCC(=O)O (centres unmarked) [Vigabatrin] | – | 80-90% | Almost no metabolic transformation occurs | Renal | Half life (the elderly): 12 to 13 h; Half life (young adults): 5 to 8 h
33 | Nc1nnc(-c2cccc(Cl)c2Cl)c(N)n1 [Lamotrigine] | – | – | Hepatic | Renal | Half life (healthy adults): 24 to 34 h (healthy adults)
34 | CN1C(=O)CC(C)(c2ccccc2)C1=O (centres unmarked) [Mesuximide] | 1.4 to 2.6 h (mesuximide) | – | Hepatic (demethylation and glucuronidation) | Renal | Half life (active metabolite): 28 to 38 h (active metabolite); Activity against maximal electroshock seizures [7]: more active against maximal electroshock seizures
35 | Cc1ccsc1C(=CCCN1CCC[C@@H](C(=O)O)C1)c1sccc1C [Tiagabine] | 7 to 9 h | – | Hepatic (CYP450 system) | Fecal and renal | –
